Measurements published in patent US20120245137A1 (Zalicus Pharmaceuticals Ltd., priority 2009, published 2012).
Where two headings read alike, the source gives them in different places.

Columns and labels:
Assay type in all cases: cell-based
Human Cav 2.2 channels = Human Cav 2.2 channels (Homo sapiens, UniProt Q00975); test: Fluorescent assay for CaV2.2 channels using potassium depolarization (VIPR/FLIPR); conditions: FLIPR data; for CAv2.2 IC50 Ratio closed/inact.: ratio closed/inactivated IC50
Outline: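 Fluo-4 calcium fluorescence (480/535 nm) was recorded on VIPR or FLIPR after depolarization to 70 mM final potassium. Before this, cells were preincubated 30 min at 25 °C with compound in 4–30 mM potassium, so that state-dependent block could be assessed; the cells were HEK293 coexpressing Cav2.2, α2δ, β and Kir2.3.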

CAv1.2 = CAv1.2 (Homo sapiens, UniProt Q13936); test: FLIPR data, CAv1.2 channel blocking (Table 6); conditions: for CAv1.2 IC50 Ratio closed/inact.: ratio closed/inactivated IC50
T-type calcium channel [1] = target: T-type calcium channel (Homo sapiens, UniProt O95180); test: T-type channel blocking, FLIPR data (Table 6); conditions: for CAv3.2 IC50 Ratio closed/inact.: CAv3.2, ratio closed/inactivated IC50
Excerpt: (§1) Another method, high-throughput spectrophotometric assay, utilizes loading of the cell lines with a fluorescent dye sensitive to intracellular calcium concentration and subsequent examination of the effects of compounds on the ability of depolarization by potassium chloride or other means to alter intracellular calcium levels.

T-type calcium channel [2] = target: T-type calcium channel (Homo sapiens, UniProt O43497); test: T-type channel blocking, FLIPR data (Table 6); conditions: CAv3.1
Excerpt: as §1

[3] = closed state, read-out: CAv2.2 IC50 Closed
[4] = inactivated state, read-out: CAv2.2 IC50 Inact.
[5] = closed state, read-out: CAv1.2 IC50 Closed
[6] = inactivated state, read-out: CAv1.2 IC50 Inact.
[7] = CAv3.2, closed state, read-out: CAv3.2 IC50 Closed
[8] = CAv3.2, inactivated state, read-out: CAv3.2 IC50 Inact.

Chain of CAv1.2 (Q13936 whole entry): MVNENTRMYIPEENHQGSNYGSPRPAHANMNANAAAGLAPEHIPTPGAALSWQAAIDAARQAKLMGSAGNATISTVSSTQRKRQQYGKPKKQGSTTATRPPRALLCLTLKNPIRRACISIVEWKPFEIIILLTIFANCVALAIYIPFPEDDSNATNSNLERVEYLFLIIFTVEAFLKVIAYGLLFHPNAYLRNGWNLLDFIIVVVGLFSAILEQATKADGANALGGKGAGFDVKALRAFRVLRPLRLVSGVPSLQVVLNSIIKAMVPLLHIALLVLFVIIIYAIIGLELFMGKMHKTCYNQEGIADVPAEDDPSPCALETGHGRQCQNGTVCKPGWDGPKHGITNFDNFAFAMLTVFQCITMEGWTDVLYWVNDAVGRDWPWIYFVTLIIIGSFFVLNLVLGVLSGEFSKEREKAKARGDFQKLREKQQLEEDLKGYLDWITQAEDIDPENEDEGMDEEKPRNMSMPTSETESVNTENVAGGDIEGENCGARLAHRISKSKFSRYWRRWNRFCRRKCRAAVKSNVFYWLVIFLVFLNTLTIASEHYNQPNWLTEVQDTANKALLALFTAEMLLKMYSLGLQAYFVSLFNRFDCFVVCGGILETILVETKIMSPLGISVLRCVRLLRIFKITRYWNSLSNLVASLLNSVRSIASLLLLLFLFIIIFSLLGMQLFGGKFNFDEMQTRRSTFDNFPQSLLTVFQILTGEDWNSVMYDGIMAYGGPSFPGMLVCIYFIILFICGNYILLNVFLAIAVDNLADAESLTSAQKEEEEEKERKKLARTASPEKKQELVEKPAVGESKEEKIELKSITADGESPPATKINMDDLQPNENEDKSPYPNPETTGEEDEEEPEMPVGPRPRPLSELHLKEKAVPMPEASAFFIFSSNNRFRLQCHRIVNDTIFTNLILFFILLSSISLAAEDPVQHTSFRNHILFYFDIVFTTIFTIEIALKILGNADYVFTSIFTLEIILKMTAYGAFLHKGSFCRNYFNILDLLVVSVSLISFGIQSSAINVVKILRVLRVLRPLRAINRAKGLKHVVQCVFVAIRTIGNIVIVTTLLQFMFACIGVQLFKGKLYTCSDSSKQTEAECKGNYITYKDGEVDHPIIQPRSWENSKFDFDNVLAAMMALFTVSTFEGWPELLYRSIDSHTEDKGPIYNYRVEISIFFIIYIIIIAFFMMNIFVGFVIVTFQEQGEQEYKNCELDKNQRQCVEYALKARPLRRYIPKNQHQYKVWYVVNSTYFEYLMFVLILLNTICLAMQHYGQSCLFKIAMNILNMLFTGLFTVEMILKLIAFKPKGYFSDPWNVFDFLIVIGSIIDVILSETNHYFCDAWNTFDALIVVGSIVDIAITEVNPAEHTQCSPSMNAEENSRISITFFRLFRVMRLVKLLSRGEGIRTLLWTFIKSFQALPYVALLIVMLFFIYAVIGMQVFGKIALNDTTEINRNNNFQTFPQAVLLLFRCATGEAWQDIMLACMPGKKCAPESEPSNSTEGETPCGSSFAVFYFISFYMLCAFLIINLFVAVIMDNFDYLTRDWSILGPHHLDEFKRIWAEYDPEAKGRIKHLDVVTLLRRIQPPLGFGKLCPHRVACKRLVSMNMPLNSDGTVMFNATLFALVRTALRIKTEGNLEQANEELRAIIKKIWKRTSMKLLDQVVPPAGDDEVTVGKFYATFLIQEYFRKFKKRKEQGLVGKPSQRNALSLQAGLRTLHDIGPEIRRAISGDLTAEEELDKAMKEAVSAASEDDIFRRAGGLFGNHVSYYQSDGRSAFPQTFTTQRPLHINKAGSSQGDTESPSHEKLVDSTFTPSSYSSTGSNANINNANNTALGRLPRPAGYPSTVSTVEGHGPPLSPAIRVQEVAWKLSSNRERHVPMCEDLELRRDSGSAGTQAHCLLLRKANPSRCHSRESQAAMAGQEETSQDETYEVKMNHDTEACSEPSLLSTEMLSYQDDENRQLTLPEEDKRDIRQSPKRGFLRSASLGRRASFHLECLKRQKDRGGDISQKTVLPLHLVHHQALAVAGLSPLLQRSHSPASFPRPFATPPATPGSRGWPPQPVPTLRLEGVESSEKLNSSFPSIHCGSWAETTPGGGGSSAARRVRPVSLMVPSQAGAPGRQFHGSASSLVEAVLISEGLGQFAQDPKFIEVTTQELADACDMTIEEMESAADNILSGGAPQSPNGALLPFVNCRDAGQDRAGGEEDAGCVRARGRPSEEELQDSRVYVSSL
Chain of CAv1.2 (P54289 25-1103 partner): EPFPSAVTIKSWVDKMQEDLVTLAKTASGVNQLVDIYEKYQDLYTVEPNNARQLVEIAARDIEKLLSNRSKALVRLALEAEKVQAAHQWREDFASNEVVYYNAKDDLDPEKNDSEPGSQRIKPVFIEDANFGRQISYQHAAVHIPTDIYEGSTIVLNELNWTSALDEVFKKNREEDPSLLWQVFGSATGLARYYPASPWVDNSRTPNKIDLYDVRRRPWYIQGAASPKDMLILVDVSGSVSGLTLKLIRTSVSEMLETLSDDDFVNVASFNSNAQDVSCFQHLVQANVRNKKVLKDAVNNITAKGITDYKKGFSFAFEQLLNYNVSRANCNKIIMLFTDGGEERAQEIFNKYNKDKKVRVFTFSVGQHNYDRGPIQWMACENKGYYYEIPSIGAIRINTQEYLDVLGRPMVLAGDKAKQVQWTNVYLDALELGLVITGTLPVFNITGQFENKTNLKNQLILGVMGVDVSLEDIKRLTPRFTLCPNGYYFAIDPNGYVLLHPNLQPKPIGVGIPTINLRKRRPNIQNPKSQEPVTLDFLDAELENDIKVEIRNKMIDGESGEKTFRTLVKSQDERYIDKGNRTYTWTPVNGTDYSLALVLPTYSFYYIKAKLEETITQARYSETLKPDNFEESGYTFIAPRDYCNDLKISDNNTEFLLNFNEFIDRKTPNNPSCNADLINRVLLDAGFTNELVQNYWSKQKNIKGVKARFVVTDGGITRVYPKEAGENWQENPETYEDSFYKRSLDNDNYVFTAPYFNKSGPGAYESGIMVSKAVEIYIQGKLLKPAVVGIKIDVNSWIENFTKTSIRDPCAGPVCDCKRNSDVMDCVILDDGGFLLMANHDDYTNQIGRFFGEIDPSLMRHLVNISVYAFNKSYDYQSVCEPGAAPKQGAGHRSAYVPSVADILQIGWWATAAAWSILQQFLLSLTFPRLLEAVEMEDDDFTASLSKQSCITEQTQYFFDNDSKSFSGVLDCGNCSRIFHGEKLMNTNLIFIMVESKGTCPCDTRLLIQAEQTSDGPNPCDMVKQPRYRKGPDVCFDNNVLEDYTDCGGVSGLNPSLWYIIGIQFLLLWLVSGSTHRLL
Chain of CAv1.2 (Q08289 whole entry partner): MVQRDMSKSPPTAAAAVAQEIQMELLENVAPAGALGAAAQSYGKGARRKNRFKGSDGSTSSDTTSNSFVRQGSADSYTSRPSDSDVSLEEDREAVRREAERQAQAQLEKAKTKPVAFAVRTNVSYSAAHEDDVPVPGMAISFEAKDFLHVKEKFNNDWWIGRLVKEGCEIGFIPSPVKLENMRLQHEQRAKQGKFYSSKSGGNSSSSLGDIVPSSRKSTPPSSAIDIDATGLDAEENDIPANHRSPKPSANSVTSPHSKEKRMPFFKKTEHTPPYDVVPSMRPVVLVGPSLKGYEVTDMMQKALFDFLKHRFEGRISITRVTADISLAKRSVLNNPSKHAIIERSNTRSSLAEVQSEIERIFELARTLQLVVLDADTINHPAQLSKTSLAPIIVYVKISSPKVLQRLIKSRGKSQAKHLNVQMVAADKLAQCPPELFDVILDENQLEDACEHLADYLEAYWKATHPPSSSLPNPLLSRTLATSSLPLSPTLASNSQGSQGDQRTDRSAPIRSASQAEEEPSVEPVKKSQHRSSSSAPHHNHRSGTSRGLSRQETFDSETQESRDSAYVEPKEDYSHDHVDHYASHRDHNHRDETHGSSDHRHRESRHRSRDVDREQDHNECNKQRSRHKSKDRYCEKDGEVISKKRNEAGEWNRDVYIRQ

Row | Compound | IC50 (Human Cav 2.2 channels; [3]) | IC50 (Human Cav 2.2 channels; [4]) | CAv2.2 IC50 Ratio closed/inact. (Human Cav 2.2 channels) | IC50 (CAv1.2; [5]) | IC50 (CAv1.2; [6]) | CAv1.2 IC50 Ratio closed/inact. (CAv1.2) | IC50 (T-type calcium channel [1]; [7]) | IC50 (T-type calcium channel [1]; [8]) | CAv3.2 IC50 Ratio closed/inact. (T-type calcium channel [1]) | IC50 (T-type calcium channel [2])
1 | CC(C)S(=O)(=O)c1cc(C(F)(F)F)cnc1C(=O)N[C@H]1C[C@H](C(C)(C)S(=O)(=O)c2cccc(OC(F)(F)F)c2)C1 [Compound 638] | 6.79 µM | 0.21 µM | 32.3 | ≥ 10 µM | 6.11 µM | 1.6 | 5.49 µM | 6.38 µM | 0.9 | 4.24 µM
2 | CC(C)([C@H]1C[C@@H](NC(=O)c2cc(C(F)(F)F)n[nH]2)C1)S(=O)(=O)c1cccc(OC(F)(F)F)c1 [Compound 639] | 6.16 µM | 0.87 µM | 7.1 | 9.31 µM | 3.4 µM | 2.7 | 2.58 µM | 2.55 µM | 1 | 2.28 µM
3 | CC(C)([C@H]1C[C@@H](NC(=O)c2ccc(Cl)c(F)c2)C1)S(=O)(=O)c1cccc(OC(F)(F)F)c1 [Compound 640] | 2.49 µM | 0.4 µM | 6.2 | 4.9 µM | 1.43 µM | 3.4 | 0.7 µM | 0.92 µM | 0.8 | 1.26 µM
4 | CC(C)([C@H]1C[C@@H](NC(=O)c2ccc(F)c(Cl)c2)C1)S(=O)(=O)c1cccc(OC(F)(F)F)c1 [Compound 641] | 1.67 µM | 0.25 µM | 6.7 | 4.11 µM | 0.69 µM | 6 | 0.29 µM | 0.53 µM | 0.5 | 0.77 µM
5 | CC(C)([C@H]1C[C@@H](NC(=O)c2ccnc(C(F)(F)F)n2)C1)S(=O)(=O)c1cccc(OC(F)(F)F)c1 [Compound 642] | 3.09 µM | 0.63 µM | 4.9 | ≥ 10 µM | 8.43 µM | 1.2 | 9.61 µM | 2.81 µM | 3.4 | 4.07 µM
6 | CC(C)([C@H]1C[C@@H](NC(=O)c2ccc(C(F)(F)F)cc2S(C)(=O)=O)C1)S(=O)(=O)c1cccc(OC(F)(F)F)c1 [Compound 643] | 10 µM | 0.47 µM | 21.3 | ≥ 10 µM | 9.25 µM | 1.1 | 8.38 µM | 7.16 µM | 1.2 | 4.17 µM
7 | CC(C)S(=O)(=O)c1cc(C(F)(F)F)cnc1C(=O)N[C@H]1C[C@@H](C(C)(C)S(=O)(=O)c2cccc(OC(F)(F)F)c2)C1 [Compound 645] | 8.49 µM | 0.24 µM | 35.4 | ≥ 10 µM | 6.8 µM | 1.5 | 9.97 µM | 6.08 µM | 1.6 | 4.69 µM
8 | CC(C)([C@H]1C[C@@H](Nc2ccnc(C(F)(F)F)n2)C1)S(=O)(=O)c1cccc(OC(F)(F)F)c1 [Compound 646] | 4.23 µM | 1.03 µM | 4.1 | 8 µM | 2.33 µM | 3.4 | 5.27 µM | 3.9 µM | 1.4 | 4.59 µM
9 | CC(C)([C@H]1C[C@H](Nc2ccnc(C(F)(F)F)n2)C1)S(=O)(=O)c1cccc(OC(F)(F)F)c1 [Compound 647] | 4.17 µM | 0.86 µM | 4.8 | 6.55 µM | 1.08 µM | 6.1 | 2.99 µM | 2.59 µM | 1.2 | 3.27 µM
10 | CC(C)([C@H]1C[C@@H](Nc2ccnc(C(F)(F)F)n2)C1)S(=O)(=O)c1cc(F)cc(C(F)(F)F)c1 [Compound 648] | 5.05 µM | 0.99 µM | 5.1 | 8.41 µM | 2.28 µM | 3.7 | 5.14 µM | 4.1 µM | 1.3 | 2.81 µM
11 | CC(C)([C@H]1C[C@H](Nc2ccnc(C(F)(F)F)n2)C1)S(=O)(=O)c1cc(F)cc(C(F)(F)F)c1 [Compound 649] | 4.83 µM | 1.19 µM | 4.1 | 6.39 µM | 1.81 µM | 3.5 | 2.4 µM | 2.74 µM | 0.9 | 3.13 µM
12 | O=S(=O)(c1cccc(OC(F)(F)F)c1)[C@H]1C[C@@H](CNc2ccnc(C(F)(F)F)n2)C1 [Compound 650] | 9.9 µM | 1.88 µM | 5.3 | 9.1 µM | 3.51 µM | 2.6 | 2.27 µM | 2.69 µM | 0.8 | 7.29 µM
13 | O=S(=O)(c1cc(F)cc(C(F)(F)F)c1)[C@H]1C[C@@H](CNc2ccnc(C(F)(F)F)n2)C1 [Compound 651] | 10 µM | 3.26 µM | 3.1 | 9.21 µM | 3.86 µM | 2.4 | 6.41 µM | 3.59 µM | 1.8 | 9.04 µM
14 | CC(C)([C@H]1C[C@@H](NC(=O)CC2(N)CCCCC2)C1)S(=O)(=O)c1cc(F)cc(C(F)(F)F)c1 [Compound 653] | 10 µM | 1.36 µM | 7.4 |  | ≥ 10 µM |  |  | 10 µM |  | ≥ 10 µM
15 | CNC1(CC(=O)NCc2ccc(S(=O)(=O)c3cccc(C(F)(F)F)c3)cc2)CCCCC1 [Compound 660] | 3.56 µM | 0.61 µM | 5.8 | 7.48 µM | 4.93 µM | 1.5 | ≥ 10 µM | 10 µM | 1 | ≥ 10 µM
16 | CC(C)([C@H]1C[C@H](NS(=O)(=O)c2ccc(C(F)(F)F)cc2)C1)S(=O)(=O)c1cccc(C(F)(F)F)c1 [Compound 663] | 9.19 µM | 0.87 µM | 10.6 | ≥ 10 µM | 2.98 µM | 3.4 | 2.94 µM | 1.53 µM | 1.9 | 2.01 µM
17 | CC(C)([C@H]1C[C@H](NS(=O)(=O)c2ccc(F)c(Cl)c2)C1)S(=O)(=O)c1cccc(C(F)(F)F)c1 [Compound 664] | 8.05 µM | 1.06 µM | 7.6 | ≥ 10 µM | 3.67 µM | 2.7 | 3.08 µM | 2.79 µM | 1.1 | 2.93 µM
18 | CC(C)([C@H]1C[C@H](NS(=O)(=O)c2ccc(Cl)c(F)c2)C1)S(=O)(=O)c1cccc(C(F)(F)F)c1 [Compound 665] | 7.26 µM | 0.8 µM | 9.1 | 8.94 µM | 4.21 µM | 2.1 | 3.03 µM | 2.66 µM | 1.1 | 2.77 µM
19 | CC(C)([C@H]1C[C@H](NS(=O)(=O)c2ccc(C(F)(F)F)cc2Cl)C1)S(=O)(=O)c1cccc(C(F)(F)F)c1 [Compound 666] | 10 µM | 0.65 µM | 15.4 | ≥ 10 µM | 2.29 µM | 4.4 | 2.16 µM | 2.17 µM | 1 | 1.59 µM
20 | CC(C)([C@H]1C[C@H](NS(=O)(=O)c2ccc(F)c(C(F)(F)F)c2)C1)S(=O)(=O)c1cccc(C(F)(F)F)c1 [Compound 667] | 10 µM | 1.08 µM | 9.3 | 7.76 µM | 2.56 µM | 3 | 2.7 µM | 2.16 µM | 1.3 | 2.5 µM
21 | CC(C)([C@H]1C[C@H](NS(=O)(=O)c2ccc(C(F)(F)F)nc2)C1)S(=O)(=O)c1cccc(C(F)(F)F)c1 [Compound 668] | 7.34 µM | 0.79 µM | 9.3 | ≥ 10 µM | 3.73 µM | 2.7 | 3.83 µM | 2.92 µM | 1.3 | 2.95 µM
22 | CC(C)([C@H]1C[C@H](NS(=O)(=O)c2ccc(OC(F)(F)F)cc2)C1)S(=O)(=O)c1cccc(C(F)(F)F)c1 [Compound 669] | 7.9 µM | 0.96 µM | 8.2 | ≥ 10 µM | 3.33 µM | 3 | 2.65 µM | 2.55 µM | 1 | 2.74 µM
